# ChEMBL document CHEMBL1201862, “PubChem BioAssay data set” (2004)
# The source made the active and inactive calls.
# How the values were obtained:
# [1] = target: Glyceraldehyde-3-phosphate dehydrogenase (Homo sapiens, UniProt P04406)
# Bcl-2-related protein A1 [2] = target: T1, Bcl-2-related protein A1 (Mus musculus, UniProt Q07440); assay: small-molecule antagonists of Bfl-1/BH3 interaction – biochemical, TR-FRET, mouse Bfl-1, confirmation (AID 621);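 further: TR-FRET binding of GST-Bfl-1 to FITC-labelled Bid peptide via terbium antibody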
# T1 sequence (Q07440 whole entry): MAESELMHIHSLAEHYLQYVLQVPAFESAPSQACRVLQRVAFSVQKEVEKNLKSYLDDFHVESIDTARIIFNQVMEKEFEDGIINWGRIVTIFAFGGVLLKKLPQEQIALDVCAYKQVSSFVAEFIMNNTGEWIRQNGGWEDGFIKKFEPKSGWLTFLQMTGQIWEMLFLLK
# Bcl-2-related protein A1 [3] = target: T1, Bcl-2-related protein A1; assay: Bfl-1 binding inhibitors, SAR follow-up, biochemical, fluorescence polarization (AID 1070)
# Protein Tat = Protein Tat (Human immunodeficiency virus type 1 group M subtype B (isolate HXB2)(HIV-1), UniProt P04608); format: functional;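 further: tat binding to TAR RNA read out by fluorescence polarization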
# cells = conditions: A549
# [4] = target: Aryl hydrocarbon receptor (Homo sapiens, UniProt P35869); assay: Luminescence-based cell-based high throughput dose response assay for activators of the Aryl Hydrocarbon Receptor (AHR). [Related pubchem assays: 2796 (Primary screen (AHR activators in singlicate)), 2845 (Confirmation screen (AHR activators in triplicate)), 434939 (Counterscreen (PXR activators in triplicate)), 2804 (Summary (AHR activators))]; format: ADME
# [5] = A549 cell cytotoxicity, dose response, cytotoxicity control, plate reader, cherry-pick, antagonist series (AID 743412); format: functional, cell-based
# [6] = blockers of bursicon-stimulated LGR2 cAMP reporter – cell-based, HEK293, CRE-luciferase reporter, cherry pick, set 2, dose response (AID 743343); format: functional;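 further: transfected cells were stimulated with diluted bursicon conditioned medium after compound addition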
# [7] = blockade of melanocortin 4 receptor signaling – cell-based, plate reader, cherry pick, counter-screen for LGR2 antagonist project, dose response (AID 743444); format: functional;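 further: transfected HEK 293 cells stimulated with alpha-MSH peptide; potency of inhibitors of the alpha-MSH evoked signal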
# [8] = viability loss in HEK293 cells – cell-based, plate reader, cherry-picked samples, cytotoxicity control, dose response (AID 743446); format: functional
# [9] = viability loss in THP-1 monocytes – THP-1 cells, cytotoxicity control for Vif-APOBEC3G degradation inhibitor project, dose response (AID 1117359); format: functional; conditions: THP-1
# [10] = viability loss in CEM21 cells – cell-based, CellTiter-Glo luminescence, cherry-picked, cytotoxicity control for viral fusion inhibitor project, dose response (AID 652042); format: functional;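 further: potency for signal decrease meaning cytotoxicity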
# [11] = blockers of HIV-1 ZM109 envelope-driven cell-cell fusion – HeLa effector, CEM target cells, luciferase, cherry-pick, dose response (AID 652058); format: functional, cell-based;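 further: luciferase signal from HIV-1 Env mediated cell-cell fusion of effector and target cells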
# [12] = HIV-1 AD8 envelope cell-cell fusion blockers – cherry-pick, dose response (AID 652062); format: functional, cell-based;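 further: luciferase signal from cell-cell fusion driven by HIV-1 clade B AD8 Env; potency is for inhibitors of fusion seen as a drop in luminescence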
# [13] = target: T2, COUP transcription factor 2 (Homo sapiens, UniProt P24468); assay: Luminescence-based cell-based high throughput dose response assay to identify inhibitors of COUP-TFII (NR2F2).; format: functional;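 further: HEK293 cells transiently cotransfected with COUP-TFII expression vector and reporter; luciferase reporter luminescence driven by COUP-TFII from the pX2-168 reporter plasmid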
# T2 sequence (P24468 whole entry): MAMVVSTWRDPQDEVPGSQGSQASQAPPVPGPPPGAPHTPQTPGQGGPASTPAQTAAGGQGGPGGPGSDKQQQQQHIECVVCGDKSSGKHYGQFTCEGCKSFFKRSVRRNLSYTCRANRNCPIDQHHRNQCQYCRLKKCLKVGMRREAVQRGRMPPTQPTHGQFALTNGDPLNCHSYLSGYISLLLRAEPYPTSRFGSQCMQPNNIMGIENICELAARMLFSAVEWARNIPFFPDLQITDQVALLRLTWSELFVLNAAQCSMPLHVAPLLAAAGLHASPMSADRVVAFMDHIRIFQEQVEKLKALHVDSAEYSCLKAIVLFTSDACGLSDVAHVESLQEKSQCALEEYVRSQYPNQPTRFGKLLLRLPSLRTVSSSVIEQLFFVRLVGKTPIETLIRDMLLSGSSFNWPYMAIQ
# H9c2 = assay: cells; format: functional, cell-based; conditions: Rattus norvegicus, H9c2, Myocardium;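 further: confirmatory concentration-response retest of ultra-high-throughput screening hits for modulation of myocardial damage; cell death induced by hydrogen peroxide oxidative stress; compound pretreatment for 60 min then peroxide exposure for 2 h; potency is for protecting the cells against peroxide damage rather than for killing them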
# [14] = Luminescence Cell-Based Dose Confirmation HTS to Identify Activators of 5'UTR Stem-Loop Driven Alpha-Synuclein mRNA Translation in H4 Neuroglioblastoma Cells. [Related pubchem assays: 1829 (Project Summary), 1814 (Primary HTS)]; format: functional
# [15] = Luminescence Cell-Based Dose Response HTS to Identify Activators of Luciferase Translation or Activity in H4 […] Cells. [Related pubchem assays: 1829 (Project Summary), 1814 (Primary HTS)]; format: functional
# H4 = assay: Luminescence Cell-Based Dose Response HTS to Identify Activators of 5'UTR Stem-Loop Driven Prion Protein mRNA Translation in H4 Neuroglioblastoma Cells. [Related pubchem assays: 1829 (Project Summary), 1814 (Primary HTS)]; format: functional; conditions: Homo sapiens
# [16] = target: T3, Oxysterols receptor LXR-beta (Homo sapiens, UniProt P55055); format: functional, cell-based;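 further: agonist activity at LXR measured by a cell-based luminescence readout across a dose range, run as a counterscreen for daf-12 agonists; HEK293 cells with Gal4-LXR fusion and GAL4-driven luciferase reporter; potency for activation of Gal4-LXR reporter so compounds are agonists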
# T3 sequence (P55055 whole entry): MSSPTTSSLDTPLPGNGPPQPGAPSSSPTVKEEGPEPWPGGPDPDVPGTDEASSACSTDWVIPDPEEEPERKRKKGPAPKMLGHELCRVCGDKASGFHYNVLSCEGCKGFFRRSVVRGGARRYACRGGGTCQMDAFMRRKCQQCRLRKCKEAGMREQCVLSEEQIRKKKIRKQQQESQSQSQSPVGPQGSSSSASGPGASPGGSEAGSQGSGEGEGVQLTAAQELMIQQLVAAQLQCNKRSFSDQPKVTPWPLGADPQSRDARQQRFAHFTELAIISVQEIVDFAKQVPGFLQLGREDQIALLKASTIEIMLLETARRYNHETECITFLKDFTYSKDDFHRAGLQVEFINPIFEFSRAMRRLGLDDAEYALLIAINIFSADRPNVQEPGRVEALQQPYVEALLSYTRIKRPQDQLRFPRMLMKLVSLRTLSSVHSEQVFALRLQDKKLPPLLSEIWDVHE
# Aryl hydrocarbon receptor, sequence (P35869 whole entry): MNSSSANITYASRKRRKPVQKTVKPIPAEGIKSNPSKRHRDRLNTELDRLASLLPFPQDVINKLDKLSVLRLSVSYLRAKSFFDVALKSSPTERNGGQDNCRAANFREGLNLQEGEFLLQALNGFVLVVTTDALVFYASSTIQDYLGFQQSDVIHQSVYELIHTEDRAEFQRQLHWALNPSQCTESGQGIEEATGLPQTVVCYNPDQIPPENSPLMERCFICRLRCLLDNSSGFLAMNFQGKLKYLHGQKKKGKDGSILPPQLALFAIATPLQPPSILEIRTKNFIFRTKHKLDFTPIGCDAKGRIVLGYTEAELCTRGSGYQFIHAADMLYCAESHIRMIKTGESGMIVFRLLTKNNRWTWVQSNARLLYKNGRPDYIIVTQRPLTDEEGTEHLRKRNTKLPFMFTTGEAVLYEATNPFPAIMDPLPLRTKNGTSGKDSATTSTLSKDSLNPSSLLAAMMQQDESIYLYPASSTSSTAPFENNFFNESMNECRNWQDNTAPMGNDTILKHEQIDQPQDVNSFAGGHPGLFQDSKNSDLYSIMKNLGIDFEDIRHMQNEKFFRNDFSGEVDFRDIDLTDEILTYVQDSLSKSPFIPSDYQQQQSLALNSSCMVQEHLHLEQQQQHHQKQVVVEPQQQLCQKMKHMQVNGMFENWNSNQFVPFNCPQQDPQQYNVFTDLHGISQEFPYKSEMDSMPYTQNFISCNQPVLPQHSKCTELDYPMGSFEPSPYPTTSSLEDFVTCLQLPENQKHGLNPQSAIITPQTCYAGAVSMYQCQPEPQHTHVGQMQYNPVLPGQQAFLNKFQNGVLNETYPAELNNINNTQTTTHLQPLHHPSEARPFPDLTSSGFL
# Glyceraldehyde-3-phosphate dehydrogenase, sequence (P04406 whole entry): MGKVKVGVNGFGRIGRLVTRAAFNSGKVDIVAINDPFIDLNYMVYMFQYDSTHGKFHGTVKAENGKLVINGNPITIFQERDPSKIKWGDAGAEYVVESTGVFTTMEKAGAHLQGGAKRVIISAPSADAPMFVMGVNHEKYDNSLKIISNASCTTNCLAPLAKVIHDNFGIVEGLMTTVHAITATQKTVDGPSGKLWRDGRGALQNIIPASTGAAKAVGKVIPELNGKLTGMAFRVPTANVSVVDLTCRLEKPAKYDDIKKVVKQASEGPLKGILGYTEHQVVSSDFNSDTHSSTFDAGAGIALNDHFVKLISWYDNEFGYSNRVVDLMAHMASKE
# Protein Tat, sequence (P04608 whole entry): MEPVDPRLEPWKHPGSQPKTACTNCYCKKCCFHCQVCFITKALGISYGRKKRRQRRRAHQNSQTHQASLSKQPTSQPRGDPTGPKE
smiles,measurement,setting,value
O=C1C(Cl)=C(N2CCN(Cc3ccccc3)CC2)C(=O)N1c1ccc(Cl)c(Cl)c1,IC50,[1],> 100 µM (not active)
same,IC50,Bcl-2-related protein A1 [2],1.64 µM (active)
same,IC50,Bcl-2-related protein A1 [3],1.62 µM (active)
Cc1cc(C(=O)CSc2nnc(-c3ccccc3)n2Cc2ccc3c(c2)OCO3)c(C)n1C,IC50,Protein Tat,> 100 µM (active)
COc1ccc(C2CC(c3ccccc3)=NN2c2ccc(C(N)=O)cc2)cc1 (stereo not given),AC50,cells,39.1 µM (active)
CC(=O)c1ccc(NC(=O)c2cc(Cl)nc3ccccc23)cc1,EC50,[4],1.66 µM (active)
CN(C)c1nc(N)nc(-c2nc3ccccc3s2)n1,EC50,[4],0.845 µM (active)
Cc1cc(-c2ccccc2)nc(S(C)(=O)=O)n1,IC50,[1],> 100 µM (not active)
same,IC50,Bcl-2-related protein A1 [2],> 100 µM (not active)
same,IC50,Bcl-2-related protein A1 [3],> 100 µM (not active)
COc1ccc(Nc2ncc(F)c(N3CCOCC3)n2)cc1,AC50,[5],> 52 µM (inactive)
same,AC50,[6],18 µM (active)
same,AC50,[7],10.2 µM (active)
same,AC50,[8],> 52 µM (inactive)
same,CC50,[9],> 40 µM (active)
Cc1ccc(Cn2ncc3c(N4CCN(Cc5ccc(Cl)cc5)CC4)ncnc32)cc1,AC50,[10],52 µM (active)
same,AC50,[11],0.606 µM (active)
same,AC50,[12],3.86 µM (active)
same,IC50,[13],10.6 µM (inactive)
CCOc1ccc2nc(O)c(CN(Cc3nnnn3Cc3ccco3)C3CCCCC3)cc2c1,IC50,H9c2,25.5 µM (active)
same,CC50,[9],> 40 µM (active)
CC1=CN2C(=N)/C(=C/c3ccco3)C(=O)N=C2S1,EC50,[14],5.22 µM (active)
same,EC50,[15],6.38 µM (active)
same,EC50,H4,1.63 µM (active)
same,EC50,[16],> 67.5 µM (inactive)
